In ChEMBL document CHEMBL6114982, “Structural optimization and characterization of highly potent and selective STAT3 inhibitors for the treatment of triple negative breast cancer” (Eur J Med Chem, 2025):
Calls of active or inactive are those of the source. The rule behind the calls is not given here.

Legend:
MDA-MB-231 [1] = experiment: Downregulation of STAT3 phosphorylation level in human MDA-MB-231 cells preincubated for 48 hrs followed by IL-6 addition and measured after 2 hrs by Western blot analysis; assay type: functional, cell-based; conditions: dose 0.05-0.5 µM, time 50.0 hrs
MDA-MB-231 [2] = experiment: Effect on STAT3 expression in human MDA-MB-231 cells at 0.1 microM measured after 8 to 48 hrs by Western blot analysis; assay type: functional, cell-based; conditions: time 8-48 hrs
MDA-MB-231 [3] = experiment: Downregulation of CD44 expression in human MDA-MB-231 cells by Western blot analysis; assay type: functional, cell-based
BT-549 [4] = experiment: Effect on ERK1/2 phosphorylation level in human BT-549 cells at 0.05 to 0.5 uM measured after 48 hrs by Western blot analysis; assay type: functional, cell-based; conditions: dose 0.05-0.5 µM
[5] = molecular target: T1, Signal transducer and activator of transcription 3 (Homo sapiens, UniProt P40763); experiment: Inhibition of STAT3 nuclear translocation in human MDA-MB-231 cells assessed as decrease in p-STAT3 at Tyr705 residue at 0.05 to 0.5 uM preincubated for 48 hrs followed by IL-6 addition and measured after 2 hrs by Immunofluorescence analysis; assay type: cell-based; conditions: dose 0.05-0.5 µM, time 50.0 hrs
[6] = molecular target: T1, Signal transducer and activator of transcription 3; experiment: Inhibition of STAT3 nuclear translocation in human BT-549 cells assessed as decrease in p-STAT3 at Tyr705 residue at 0.05 to 0.5 uM preincubated for 48 hrs followed by IL-6 addition and measured after 2 hrs by Immunofluorescence analysis; assay type: cell-based; conditions: dose 0.05-0.5 µM, time 50.0 hrs
BT-549 [7] = experiment: Inhibition of cell invasion in human BT-549 cells assessed as decrease in number of invaded cells incubated for 24 hrs by crystal violet staining based inverted microscopic analysis; assay type: functional; conditions: dose 0.05-0.5 µM
[8] = Toxicity in female BALB/c nude mouse assessed as change in body weight at 10 to 20 mg/kg, iv measured for 30 days; assay type: organism-based; conditions: in vivo, 720 h, dose 10-20 mg/kg, time 30 day
[9] = molecular target: T1, Signal transducer and activator of transcription 3; experiment: Inhibition of STAT3 phosphorylation in human MDA-MB-231 cells assessed as downregulation of TAGLN expression level; assay type: cell-based

T1 sequence (P40763 whole entry): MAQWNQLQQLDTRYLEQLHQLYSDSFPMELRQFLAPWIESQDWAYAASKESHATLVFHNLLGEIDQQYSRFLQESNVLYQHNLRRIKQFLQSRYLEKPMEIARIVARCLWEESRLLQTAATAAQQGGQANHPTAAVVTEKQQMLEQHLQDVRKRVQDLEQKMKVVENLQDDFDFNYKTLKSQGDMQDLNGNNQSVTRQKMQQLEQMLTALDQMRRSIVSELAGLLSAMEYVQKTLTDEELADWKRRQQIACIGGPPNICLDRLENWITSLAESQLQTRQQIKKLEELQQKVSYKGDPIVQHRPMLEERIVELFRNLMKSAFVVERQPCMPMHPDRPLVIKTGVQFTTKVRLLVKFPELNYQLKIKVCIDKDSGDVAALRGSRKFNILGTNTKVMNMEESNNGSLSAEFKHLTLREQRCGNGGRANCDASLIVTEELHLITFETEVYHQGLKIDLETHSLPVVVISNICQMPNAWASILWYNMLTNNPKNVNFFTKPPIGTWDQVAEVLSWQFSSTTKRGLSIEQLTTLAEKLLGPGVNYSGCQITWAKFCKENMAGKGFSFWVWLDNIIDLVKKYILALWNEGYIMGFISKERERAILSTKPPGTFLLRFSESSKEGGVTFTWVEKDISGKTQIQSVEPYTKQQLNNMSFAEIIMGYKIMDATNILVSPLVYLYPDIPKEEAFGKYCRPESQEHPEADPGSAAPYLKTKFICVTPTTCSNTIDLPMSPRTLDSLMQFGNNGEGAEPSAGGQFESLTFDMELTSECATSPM

With COc1cccc(C(=O)Nc2sc3c(c2C#N)CCN(C(=O)Nc2ccccc2OC)C3)c1 the Activity (MDA-MB-231 [1]) was “Dose-dependent-effect”, the Activity (MDA-MB-231 [2]) was “Active; Compound Showed Little Impact On Stat3 Expression” and the Activity (MDA-MB-231 [3]) was “Active”. The Activity (BT-549 [4]) was “inactive”, the inhibition [5] was “Active” and the inhibition [6] was “Active”. For the same molecule, the inhibition (BT-549 [7]) was “Dose-dependent-effect”, the Activity [8] was “Toxic” and the inhibition [9] was “Active”.
